According to US11684607B2, “Secnidazole for use in the treatment of bacterial vaginosis” (priority 2014, dated 2023):
Like-named read-outs stand apart in the source and are kept apart here.

Assay: Effect of a single 2 g dose of SYM-1219 on the plasma pharmacokinetics of EE2 and NET in healthy female subjects
Type: in vivo, human
Settings: for AUC(0-t) / AUC(0-inf) / Cmax: female, human, plasma
Procedure: Methods: Fifty-four (54) healthy female subjects, ages 18-65, received EE2/NET alone and in combination, where SYM-1219+EE2/NET were co-administered on Day 1 (Group B1; N=27) or SYM-1219 on Day 1 and EE2/NET on Day 2 (Group B2; N=27). Serial blood samples were drawn to measure plasma concentrations of EE2/NET. […] Safety was evaluated by recording of adverse events, vital signs, ECGs and standard laboratory tests.

[1] = Group B1: Period 2 (EE2/NET followed by SYM-1219 2 grams on Day 1) vs Period 1 (EE2/NET alone)
[2] = Group B1: SYM-1219 2 g and EE2/NET co-administered on Day 1
[3] = Group B2: Period 2 (SYM-1219 2 grams on Day 1, EE2/NET on Day 2) vs Period 1 (EE2/NET alone)

EE2 AUC0-t, Geometric LSMean % Ratio (100 * Test/Reference) [1]: 94.26%
EE2 AUC0-∞, Geometric LSMean % Ratio (100 * Test/Reference) [1]: 105.37%
EE2 Cmax, Geometric LSMean % Ratio (100 * Test/Reference) [1]: 71.07%
EE2 Cmax reduction [2]: 29%
change in EE2 AUC [2]: no change
EE2 AUC0-t, Geometric LSMean % Ratio (100 * Test/Reference) [3]: 99.04%
EE2 AUC0-∞, Geometric LSMean % Ratio (100 * Test/Reference) [3]: 93.32%
EE2 Cmax, Geometric LSMean % Ratio (100 * Test/Reference) [3]: 104.96%
EE2 PK alteration (Group B2: SYM-1219 2 g on Day 1, EE2/NET on Day 2): not altered
AUC(0-t) (Group B1 Period 1: EE2/NET alone, read-out: EE2 AUC0-t, Geometric Least Squares (LS) Means): 0.627 ng·h/mL
AUC(0-t) (Group B1 Period 1: EE2/NET alone, read-out: EE2 AUC0-t, Mean): 0.644 ng·h/mL
AUC(0-inf) (Group B1 Period 1: EE2/NET alone, read-out: EE2 AUC0-∞, Geometric Least Squares (LS) Means): 0.878 ng·h/mL
AUC(0-inf) (Group B1 Period 1: EE2/NET alone, read-out: EE2 AUC0-∞, Mean): 0.911 ng·h/mL
Cmax (Group B1 Period 1: EE2/NET alone, read-out: EE2 Cmax, Geometric Least Squares (LS) Means): 0.0779 ng/mL
Cmax (Group B1 Period 1: EE2/NET alone, read-out: EE2 Cmax, Mean): 0.0806 ng/mL
AUC(0-t) (Group B1 Period 2: EE2/NET followed by SYM-1219 2 grams on Day 1, read-out: EE2 AUC0-t, Geometric Least Squares (LS) Means): 0.591 ng·h/mL
AUC(0-t) (Group B1 Period 2: EE2/NET followed by SYM-1219 2 grams on Day 1, read-out: EE2 AUC0-t, Mean): 0.616 ng·h/mL
AUC(0-inf) (Group B1 Period 2: EE2/NET followed by SYM-1219 2 grams on Day 1, read-out: EE2 AUC0-∞, Geometric Least Squares (LS) Means): 0.925 ng·h/mL
AUC(0-inf) (Group B1 Period 2: EE2/NET followed by SYM-1219 2 grams on Day 1, read-out: EE2 AUC0-∞, Mean): 0.954 ng·h/mL
Cmax (Group B1 Period 2: EE2/NET followed by SYM-1219 2 grams on Day 1, read-out: EE2 Cmax, Geometric Least Squares (LS) Means): 0.0554 ng/mL
Cmax (Group B1 Period 2: EE2/NET followed by SYM-1219 2 grams on Day 1, read-out: EE2 Cmax, Mean): 0.0599 ng/mL
AUC(0-t) (Group B2 Period 1: EE2/NET alone, read-out: EE2 AUC0-t, Geometric Least Squares (LS) Means): 0.65 ng·h/mL
AUC(0-t) (Group B2 Period 1: EE2/NET alone, read-out: EE2 AUC0-t, Mean): 0.68 ng·h/mL
AUC(0-inf) (Group B2 Period 1: EE2/NET alone, read-out: EE2 AUC0-∞, Geometric Least Squares (LS) Means): 0.945 ng·h/mL
AUC(0-inf) (Group B2 Period 1: EE2/NET alone, read-out: EE2 AUC0-∞, Mean): 0.995 ng·h/mL
Cmax (Group B2 Period 1: EE2/NET alone, read-out: EE2 Cmax, Geometric Least Squares (LS) Means): 0.083 ng/mL
Cmax (Group B2 Period 1: EE2/NET alone, read-out: EE2 Cmax, Mean): 0.0891 ng/mL
AUC(0-t) (Group B2 Period 2: SYM-1219 2 grams on Day 1, EE2/NET on Day 2, read-out: EE2 AUC0-t, Geometric Least Squares (LS) Means): 0.644 ng·h/mL
AUC(0-t) (Group B2 Period 2: SYM-1219 2 grams on Day 1, EE2/NET on Day 2, read-out: EE2 AUC0-t, Mean): 0.669 ng·h/mL
AUC(0-inf) (Group B2 Period 2: SYM-1219 2 grams on Day 1, EE2/NET on Day 2, read-out: EE2 AUC0-∞, Geometric Least Squares (LS) Means): 0.882 ng·h/mL
AUC(0-inf) (Group B2 Period 2: SYM-1219 2 grams on Day 1, EE2/NET on Day 2, read-out: EE2 AUC0-∞, Mean): 0.937 ng·h/mL
Cmax (Group B2 Period 2: SYM-1219 2 grams on Day 1, EE2/NET on Day 2, read-out: EE2 Cmax, Geometric Least Squares (LS) Means): 0.0872 ng/mL
Cmax (Group B2 Period 2: SYM-1219 2 grams on Day 1, EE2/NET on Day 2, read-out: EE2 Cmax, Mean): 0.0926 ng/mL
Compound: C#C[C@]1(O)CC[C@H]2[C@@H]3CCc4cc(O)ccc4[C@H]3CC[C@@]21C [EE2, ethinyl estradiol]
